Results taken from ChEMBL document CHEMBL5465560, “Selectivity Literature for EUbOPEN Chemogenomic Library” (2024).

Legend:
[1] = molecular target: T1, Phosphatidylinositol 4,5-bisphosphate 3-kinase catalytic subunit delta isoform (Homo sapiens) (UniProt O00329); experiment: Selectivity interaction (Ambit KINOMEscan and KiNATiv profiling in Jurkat cells) EUB0000090b PIK3CD; assay type: cell-based; details: at 1 µM
T1 sequence (whole entry): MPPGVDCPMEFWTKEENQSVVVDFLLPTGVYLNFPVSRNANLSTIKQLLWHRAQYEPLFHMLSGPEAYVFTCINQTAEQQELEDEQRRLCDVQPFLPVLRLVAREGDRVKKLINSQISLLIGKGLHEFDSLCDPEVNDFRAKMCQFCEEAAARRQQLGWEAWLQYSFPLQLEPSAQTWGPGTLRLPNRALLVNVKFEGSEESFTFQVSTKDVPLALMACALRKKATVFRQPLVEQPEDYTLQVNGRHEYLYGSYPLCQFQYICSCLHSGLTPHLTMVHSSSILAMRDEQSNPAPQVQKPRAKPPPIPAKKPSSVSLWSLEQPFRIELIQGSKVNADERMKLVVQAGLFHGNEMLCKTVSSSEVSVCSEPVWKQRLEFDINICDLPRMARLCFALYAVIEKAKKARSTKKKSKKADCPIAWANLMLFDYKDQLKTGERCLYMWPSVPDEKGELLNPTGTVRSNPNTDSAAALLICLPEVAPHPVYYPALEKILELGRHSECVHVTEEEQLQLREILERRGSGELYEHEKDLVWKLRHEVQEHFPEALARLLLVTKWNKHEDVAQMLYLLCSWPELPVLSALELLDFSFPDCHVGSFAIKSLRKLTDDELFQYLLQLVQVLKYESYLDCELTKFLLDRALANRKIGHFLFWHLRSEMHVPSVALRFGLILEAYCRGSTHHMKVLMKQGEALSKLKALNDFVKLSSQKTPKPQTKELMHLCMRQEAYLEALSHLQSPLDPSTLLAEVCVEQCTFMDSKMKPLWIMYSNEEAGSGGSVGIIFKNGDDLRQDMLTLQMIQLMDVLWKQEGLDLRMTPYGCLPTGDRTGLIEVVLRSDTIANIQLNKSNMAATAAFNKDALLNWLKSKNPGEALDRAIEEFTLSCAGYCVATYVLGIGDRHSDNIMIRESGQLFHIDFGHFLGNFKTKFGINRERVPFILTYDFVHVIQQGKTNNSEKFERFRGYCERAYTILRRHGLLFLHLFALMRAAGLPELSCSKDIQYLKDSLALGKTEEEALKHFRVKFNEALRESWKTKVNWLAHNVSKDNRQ

[2] = molecular target: T2, Serine/threonine-protein kinase D1 (Homo sapiens) (UniProt Q15139); experiment: Selectivity interaction (KinomeScan (DiscoverX)) EUB0000655a PRKD1; details: at 10 µM
T2 sequence (whole entry): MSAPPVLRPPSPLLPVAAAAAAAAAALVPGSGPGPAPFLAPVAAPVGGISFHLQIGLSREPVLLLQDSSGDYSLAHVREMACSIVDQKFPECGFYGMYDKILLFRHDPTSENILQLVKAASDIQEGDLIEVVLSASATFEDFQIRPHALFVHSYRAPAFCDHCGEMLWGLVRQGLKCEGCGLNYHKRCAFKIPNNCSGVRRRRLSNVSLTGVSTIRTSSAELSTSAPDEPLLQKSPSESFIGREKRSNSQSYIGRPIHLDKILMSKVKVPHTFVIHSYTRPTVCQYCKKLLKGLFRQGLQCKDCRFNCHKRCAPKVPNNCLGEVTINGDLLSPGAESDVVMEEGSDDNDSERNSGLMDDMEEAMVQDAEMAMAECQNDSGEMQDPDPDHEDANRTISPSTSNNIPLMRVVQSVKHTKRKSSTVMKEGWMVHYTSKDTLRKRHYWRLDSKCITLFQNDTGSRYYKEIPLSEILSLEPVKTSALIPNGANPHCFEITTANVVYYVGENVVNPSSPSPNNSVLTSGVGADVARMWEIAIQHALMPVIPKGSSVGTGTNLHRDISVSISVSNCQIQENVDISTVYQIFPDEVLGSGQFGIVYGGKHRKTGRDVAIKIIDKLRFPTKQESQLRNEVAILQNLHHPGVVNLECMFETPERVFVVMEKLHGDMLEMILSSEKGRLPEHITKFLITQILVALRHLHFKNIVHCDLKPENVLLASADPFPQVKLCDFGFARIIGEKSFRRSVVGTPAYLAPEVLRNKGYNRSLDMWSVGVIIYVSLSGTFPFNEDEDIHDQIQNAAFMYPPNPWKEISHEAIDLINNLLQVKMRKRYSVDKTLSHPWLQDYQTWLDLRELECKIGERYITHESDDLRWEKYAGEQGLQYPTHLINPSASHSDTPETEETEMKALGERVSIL

[3] = molecular target: T3, Aurora kinase A (Homo sapiens) (UniProt O14965); experiment: Selectivity interaction (Kinase panel (KiNativ target engagement assay in Jurkat cells)) EUB0001635a STK6; assay type: cell-based; details: at 1 µM
T3 sequence (whole entry): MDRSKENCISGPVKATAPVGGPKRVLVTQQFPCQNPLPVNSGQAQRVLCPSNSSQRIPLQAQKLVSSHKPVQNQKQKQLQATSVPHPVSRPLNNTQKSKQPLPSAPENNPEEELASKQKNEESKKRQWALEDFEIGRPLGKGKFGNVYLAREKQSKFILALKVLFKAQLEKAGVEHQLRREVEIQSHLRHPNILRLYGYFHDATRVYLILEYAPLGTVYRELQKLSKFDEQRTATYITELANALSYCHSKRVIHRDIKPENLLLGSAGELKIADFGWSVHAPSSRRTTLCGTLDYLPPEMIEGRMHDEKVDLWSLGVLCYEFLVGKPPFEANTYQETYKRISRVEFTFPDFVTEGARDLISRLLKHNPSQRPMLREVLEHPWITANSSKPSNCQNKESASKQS

[4] = molecular target: Tyrosine-protein kinase Yes (Homo sapiens) (UniProt P07947); experiment: Selectivity interaction (KinomeScan (DiscoverX)) EUB0000092b YES1; details: at 10 µM
Tyrosine-protein kinase Yes (Homo sapiens), sequence (P07947 2-543 limits assumed): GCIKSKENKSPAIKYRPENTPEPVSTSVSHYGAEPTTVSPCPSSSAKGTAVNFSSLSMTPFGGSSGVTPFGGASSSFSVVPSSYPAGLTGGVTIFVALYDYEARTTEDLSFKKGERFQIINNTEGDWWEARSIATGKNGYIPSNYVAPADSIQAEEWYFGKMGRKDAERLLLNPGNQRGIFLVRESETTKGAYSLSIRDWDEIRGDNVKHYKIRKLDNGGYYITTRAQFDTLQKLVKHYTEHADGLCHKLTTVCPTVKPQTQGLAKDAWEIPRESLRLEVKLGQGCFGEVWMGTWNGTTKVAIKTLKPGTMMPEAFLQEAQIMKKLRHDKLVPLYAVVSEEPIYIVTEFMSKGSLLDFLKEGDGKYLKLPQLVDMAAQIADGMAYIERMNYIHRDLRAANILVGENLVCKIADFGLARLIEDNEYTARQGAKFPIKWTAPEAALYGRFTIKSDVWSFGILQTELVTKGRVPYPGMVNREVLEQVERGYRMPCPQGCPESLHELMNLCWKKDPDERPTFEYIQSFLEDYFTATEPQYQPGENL

[5] = molecular target: Epidermal growth factor receptor (Homo sapiens, UniProt P00533); experiment: Selectivity interaction (Enzyme panel (AstraZeneca, AlphaScreen, functional assay)) EUB0000621a EGFR
Epidermal growth factor receptor, sequence (P00533 whole entry): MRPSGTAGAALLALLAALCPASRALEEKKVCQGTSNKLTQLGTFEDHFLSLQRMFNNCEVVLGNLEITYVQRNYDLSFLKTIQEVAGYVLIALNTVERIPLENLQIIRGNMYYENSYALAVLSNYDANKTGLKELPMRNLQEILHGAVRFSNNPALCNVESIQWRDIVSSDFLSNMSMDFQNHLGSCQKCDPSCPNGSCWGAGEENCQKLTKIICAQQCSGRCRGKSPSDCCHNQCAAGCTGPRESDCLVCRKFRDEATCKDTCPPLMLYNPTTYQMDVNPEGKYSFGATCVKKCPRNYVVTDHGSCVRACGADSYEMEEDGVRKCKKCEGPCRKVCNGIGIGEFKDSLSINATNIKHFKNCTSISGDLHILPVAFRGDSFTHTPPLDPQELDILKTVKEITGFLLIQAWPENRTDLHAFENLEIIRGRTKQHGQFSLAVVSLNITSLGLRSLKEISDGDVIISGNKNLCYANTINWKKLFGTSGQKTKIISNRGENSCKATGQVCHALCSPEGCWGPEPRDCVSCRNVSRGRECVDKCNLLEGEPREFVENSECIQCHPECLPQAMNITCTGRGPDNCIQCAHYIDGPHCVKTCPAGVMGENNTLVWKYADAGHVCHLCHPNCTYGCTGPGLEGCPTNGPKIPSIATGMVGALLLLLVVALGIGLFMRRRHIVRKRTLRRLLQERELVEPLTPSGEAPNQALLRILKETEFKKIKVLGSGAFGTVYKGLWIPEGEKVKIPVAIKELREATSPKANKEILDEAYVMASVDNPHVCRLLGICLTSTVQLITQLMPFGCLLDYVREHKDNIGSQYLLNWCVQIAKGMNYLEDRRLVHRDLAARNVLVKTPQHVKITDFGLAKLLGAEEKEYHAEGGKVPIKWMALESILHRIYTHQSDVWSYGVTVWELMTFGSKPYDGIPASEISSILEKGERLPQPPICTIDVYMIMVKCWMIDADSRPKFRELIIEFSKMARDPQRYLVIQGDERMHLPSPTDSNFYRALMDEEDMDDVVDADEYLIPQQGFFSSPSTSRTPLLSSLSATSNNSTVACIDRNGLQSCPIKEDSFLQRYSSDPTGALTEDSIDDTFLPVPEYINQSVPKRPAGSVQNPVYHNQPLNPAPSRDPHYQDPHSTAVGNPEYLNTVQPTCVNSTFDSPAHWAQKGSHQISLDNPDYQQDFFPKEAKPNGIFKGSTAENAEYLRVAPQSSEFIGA

[6] = molecular target: Tyrosine-protein kinase Lyn (Homo sapiens, UniProt P07948); experiment: Selectivity interaction (KinomeScan (DiscoverX)) EUB0001619a LYN; details: at 1 µM
Tyrosine-protein kinase Lyn, sequence (P07948 2-512 limits assumed): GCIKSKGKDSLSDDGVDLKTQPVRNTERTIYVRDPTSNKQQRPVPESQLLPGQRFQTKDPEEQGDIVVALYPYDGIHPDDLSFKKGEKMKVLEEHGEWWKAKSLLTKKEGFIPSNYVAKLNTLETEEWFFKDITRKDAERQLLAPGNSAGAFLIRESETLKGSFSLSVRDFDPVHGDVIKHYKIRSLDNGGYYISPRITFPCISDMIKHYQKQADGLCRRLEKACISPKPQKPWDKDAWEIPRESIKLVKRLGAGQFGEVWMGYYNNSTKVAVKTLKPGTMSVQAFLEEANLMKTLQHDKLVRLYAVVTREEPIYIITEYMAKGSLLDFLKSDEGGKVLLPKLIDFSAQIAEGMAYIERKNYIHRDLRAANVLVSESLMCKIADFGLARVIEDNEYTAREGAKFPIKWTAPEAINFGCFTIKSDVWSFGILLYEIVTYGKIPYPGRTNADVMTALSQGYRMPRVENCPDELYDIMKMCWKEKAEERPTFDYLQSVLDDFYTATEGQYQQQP

Q: For CN(C)C/C=C/C(=O)Nc1ccc(C(=O)N2CCCC(Nc3ncc(Cl)c(-c4c[nH]c5ccccc45)n3)C2)cc1 (configuration not stated), which % of control [1] is on record?
A: 100%

Q: Which % of control [2] does the source give for CN(C)CCOc1ccc(-c2nc(-c3ccncc3)c(-c3ccc4c(c3)CC/C4=N\O)[nH]2)cc1 here?
A: 3.8%

Q: Which results are given for C=CC(=O)Nc1ccc(C(=O)Nc2[nH]nc3c2CN(C(=O)N[C@H](CN(C)C)c2ccccc2)C3(C)C)cc1?
A: % of engagement ([3]; Selectivity number of off-targets 0.0, Selectivity number of targets 233.0, Source Knowledge https://www.sciencedirect.com/science/article/pii/S2451945619300674?via%3Dihub): 22.4%; % of engagement [3]: 26%

Q: With CCC(=O)N1CCN(c2ccc(-n3c(=O)ccc4cnc5ccc(-c6cnc7ccccc7c6)cc5c43)cc2C(F)(F)F)CC1 as the compound, how does the % of control [4] read?
A: 74%

Q: Which IC50 [5] does the source give for Cc1cc([C@@H](C)Nc2ccccc2C(=O)O)c2nc(N3CCOCC3)cc(=O)n2c1 [AZD-6482] here?
A: > 298 µM

Q: Which % of control [6] does the source give for N#Cc1cccc(-c2c[nH]c3ncnc(N4CCOCC4)c23)c1 here?
A: 91%
